Molecular target: PFO (perfringolysin O), His-tagged PFO (Clostridium perfringens, UniProt P0C2E9)
Format: biochemical

PFO (perfringolysin O), His-tagged PFO, sequence (P0C2E9 29-500 limits assumed): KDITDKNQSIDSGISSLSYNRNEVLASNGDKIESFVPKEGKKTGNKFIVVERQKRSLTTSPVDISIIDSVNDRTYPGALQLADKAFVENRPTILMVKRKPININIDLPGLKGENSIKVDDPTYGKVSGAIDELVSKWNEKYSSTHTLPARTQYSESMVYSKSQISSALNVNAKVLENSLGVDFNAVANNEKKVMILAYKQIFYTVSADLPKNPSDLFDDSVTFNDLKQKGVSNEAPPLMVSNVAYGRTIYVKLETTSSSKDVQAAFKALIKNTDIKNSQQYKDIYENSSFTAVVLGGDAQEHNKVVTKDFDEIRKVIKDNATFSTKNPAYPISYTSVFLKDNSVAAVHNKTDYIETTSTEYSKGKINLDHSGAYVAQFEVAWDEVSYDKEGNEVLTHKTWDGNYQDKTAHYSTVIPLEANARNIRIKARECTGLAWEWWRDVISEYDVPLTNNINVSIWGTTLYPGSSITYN

## CC(C)CCC[C@@H](C)[C@H]1CC[C@H]2[C@@H]3CC=C4C[C@@H](O)CC[C@]4(C)[C@H]3CC[C@]12C [cholesterol]
  % activity retained at 0.5 μM cholesterol: 7.6%

Source: PMC3215231, “Arcanolysin is a cholesterol-dependent cytolysin of the human pathogen Arcanobacterium haemolyticum” (BMC Microbiology, 2011)
